{"source": "paper PMC12073438", "about": "“Stereoselectivity of In Vivo Processes and Bioactivity of Farrerol Enantiomers” (Molecules, 2025)", "key": {"CYP1A2": {"biological_target": "T1, CYP1A2 (Homo sapiens, UniProt P05177)", "T1 sequence (P05177 1-516)": "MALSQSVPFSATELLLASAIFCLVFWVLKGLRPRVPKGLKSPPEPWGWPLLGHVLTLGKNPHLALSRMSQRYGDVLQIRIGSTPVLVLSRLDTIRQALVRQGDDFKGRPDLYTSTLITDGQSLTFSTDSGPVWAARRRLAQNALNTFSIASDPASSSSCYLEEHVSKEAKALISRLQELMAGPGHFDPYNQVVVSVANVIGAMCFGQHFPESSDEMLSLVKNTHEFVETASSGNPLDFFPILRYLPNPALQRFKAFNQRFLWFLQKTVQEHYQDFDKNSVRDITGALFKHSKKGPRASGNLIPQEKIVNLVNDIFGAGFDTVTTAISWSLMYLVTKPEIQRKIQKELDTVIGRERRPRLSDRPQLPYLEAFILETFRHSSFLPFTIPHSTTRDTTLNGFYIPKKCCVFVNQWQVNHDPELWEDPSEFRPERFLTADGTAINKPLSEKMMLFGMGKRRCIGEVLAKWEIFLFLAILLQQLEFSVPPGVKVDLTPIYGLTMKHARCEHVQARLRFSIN", "assay": "CYP inhibition in liver microsomes (phenacetin)", "conditions": "IC50, CYP 1A2, marker substrate phenacetin", "protocol": "(§1) A liver microsome working solution (20 mg/mL) contained potassium phosphate buffer (0.1 M, pH 7.4), hepatic microsomes and marker substrate solution, which phenacetin, diclofenic acid, S-mephenytoinwer, dextromethorphan, midazolam, coumarin and chlorzoxazone used as substrates for […], CYP2C9, CYP2C19, CYP2D6, CYP3A4/5, CYP2A6 and CYP2E1, respectively. In brief, 238.5 µL of liver microsome working solution was placed in a 1 mL EP tube. […] The reaction was started by injecting NADPH (1 mM), and the resulting mixture was incubated at 37 °C for 10 min. After centrifuging at 4000 rpm for 15 min, the supernatant was transferred and analyzed using LC-MS/MS to detect the corresponding metabolites. Each incubation was conducted in triplicate (n = 3).\nAn API 4000 LC/tandem mass spectrometry was used to analyze the concentration of metabolites of various chemical agents using a validated mode. An Atlantis T3 column (2.1 mm × 50 mm, 5 μm) was utilized, employing mobile phases consisting of a 0.1% formic acid solution (A) and a 0.1% acetonitrile formate solution (B). […] As for the detection of CYP 2E1 metabolite, the Flow composition was as follows: 0–0.30 min, 10% B; 0.30–1.30 min, 10–55% B; 1.30–1.50 min, 55–95% B; 1.50–2.00 min, 95% B; 2.00–2.01 min, 95–10% B; the low rate was 0.85 mL/min. ESI was conducted in positive ion mode. MRM was utilized to quantify each metabolite, detecting the following transitions: m/z 152.1/110 for acetaminophen, 312.1/230.0 for 4′-Hydroxydiclofenac, 235.0/150.0 for 4′-hydroxymephentoin, 258.2/199.1 for Dextrorphan, 342.1/203.0 for 1′-hydroxymidazolam, 161.1/133.1 for hydroxycoumarin, and 184.0/120.0 for 6-hydroxyclozoxadone."}, "CYP2D6": {"biological_target": "CYP2D6 (Homo sapiens, UniProt P10635)", "sequence (P10635 whole entry)": "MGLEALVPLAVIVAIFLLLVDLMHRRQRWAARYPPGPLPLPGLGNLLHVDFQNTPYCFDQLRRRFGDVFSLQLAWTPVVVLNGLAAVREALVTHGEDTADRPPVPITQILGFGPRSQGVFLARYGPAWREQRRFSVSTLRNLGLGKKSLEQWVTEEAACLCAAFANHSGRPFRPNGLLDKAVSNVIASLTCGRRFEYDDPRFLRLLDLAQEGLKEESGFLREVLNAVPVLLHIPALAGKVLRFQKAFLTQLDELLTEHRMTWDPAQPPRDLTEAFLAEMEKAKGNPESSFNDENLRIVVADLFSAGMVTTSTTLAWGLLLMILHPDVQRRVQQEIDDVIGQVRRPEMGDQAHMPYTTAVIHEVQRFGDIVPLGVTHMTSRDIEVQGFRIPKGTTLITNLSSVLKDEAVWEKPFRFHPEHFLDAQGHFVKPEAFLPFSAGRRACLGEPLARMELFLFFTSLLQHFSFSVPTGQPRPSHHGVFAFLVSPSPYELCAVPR", "assay": "CYP inhibition in liver microsomes (dextromethorphan)", "assay_type": "in vitro ADME", "conditions": "CYP 2D6, marker substrate dextromethorphan", "protocol": "as §1\nAn API 4000 LC/tandem mass spectrometry was used to analyze the concentration of metabolites of various chemical agents using a validated mode. An Atlantis T3 column (2.1 mm × 50 mm, 5 μm) was utilized, employing mobile phases consisting of a 0.1% formic acid solution (A) and a 0.1% acetonitrile formate solution (B). […] MRM was utilized to quantify each metabolite, detecting the following transitions: m/z 152.1/110 for acetaminophen, 312.1/230.0 for 4′-Hydroxydiclofenac, 235.0/150.0 for 4′-hydroxymephentoin, 258.2/199.1 for Dextrorphan, 342.1/203.0 for 1′-hydroxymidazolam, 161.1/133.1 for hydroxycoumarin, and 184.0/120.0 for 6-hydroxyclozoxadone."}}, "data": [{"smiles": "Cc1c(O)c(C)c2c(c1O)C(=O)CC(c1ccc(O)cc1)O2", "note": "(single isomer, unassigned; (+)) [(+)-farrerol, 2,3-dihydro-5,7-dihydroxy-2-(4-hydroxyphenyl)-6,8-dimethyl-4-benzopyrone]", "values": [{"measurement": "IC50", "setting": "CYP1A2", "result": 588, "unit": "nM"}, {"measurement": "IC50", "setting": "CYP2D6", "result": "> 50000", "unit": "nM"}]}, {"smiles": "Cc1c(O)c(C)c2c(c1O)C(=O)CC(c1ccc(O)cc1)O2", "note": "(single isomer, unassigned; (-)) [(−)-farrerol, 2,3-dihydro-5,7-dihydroxy-2-(4-hydroxyphenyl)-6,8-dimethyl-4-benzopyrone]", "values": [{"measurement": "IC50", "setting": "CYP1A2", "result": 1020, "unit": "nM"}, {"measurement": "IC50", "setting": "CYP2D6", "result": "> 50000", "unit": "nM"}]}]}
